Reference: patent publication US6352988B2, “Indane or dihydroindole derivatives” (H. Lundbeck A/S, priority 1996, dated 2002)

What was measured:
[1] = biological target: T1, dopamine D4 receptors in cloned human dopamine receptor subtype 4.2 membranes (Homo sapiens, UniProt P21917, DEL271-302); experiment: 3H-YM-09151-2 binding (affinity for dopamine D4 receptors); conditions: 3H-YM-09151-2, cloned human D4.2 membranes; * means that the test result is preliminary; read-out: D4-bind. IC50
T1 sequence (P21917 with tags, fused parts or gaps DEL271-302): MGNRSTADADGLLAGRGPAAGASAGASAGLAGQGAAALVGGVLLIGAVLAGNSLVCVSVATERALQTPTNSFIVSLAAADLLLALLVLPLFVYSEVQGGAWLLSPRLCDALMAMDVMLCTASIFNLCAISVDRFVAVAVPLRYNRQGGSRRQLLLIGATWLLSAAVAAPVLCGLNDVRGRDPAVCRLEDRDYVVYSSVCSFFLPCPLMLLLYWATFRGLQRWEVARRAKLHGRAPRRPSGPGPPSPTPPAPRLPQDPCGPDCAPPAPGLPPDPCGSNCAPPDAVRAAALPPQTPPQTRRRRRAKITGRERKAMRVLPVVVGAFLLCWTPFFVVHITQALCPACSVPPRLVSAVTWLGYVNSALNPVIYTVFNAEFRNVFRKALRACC
Protocol: By this method the inhibition by drugs of the binding of the dopamine D4 antagonist ^3H-YM-09151-2 to dopamine D4 receptors in cloned human dopamine receptor subtype 4.2 membranes is determined in vitro. Accordingly, this is a test for affinity for dopamine D4 receptors. The test is performed using a preparation of cloned dopamine D4 cell membranes CRM-016®, Dupharma A/S, Denmark, in accordance with the product specifications.

Row | Structure (SMILES) | melting point [°C] | IC50 [1] [nM]
1 | c1ccc2c(c1)CC(CN1CCC(c3c[nH]c4cc5c(cc34)OCO5)CC1)C2 [Compound 21e, 3-[1-(Indan-2-ylmethyl)piperidin-4-yl]-5,6-methylenedioxy-1H-indole] | 187 to 188 | 23
2 | CC(=O)N1CC(CCN2CC=C(c3c[nH]c4cc(Cl)ccc34)CC2)c2ccccc21 (single isomer, unassigned; (-)) [Compound 34b] | 168 to 169 | 24
3 | Fc1ccc2[nH]cc(C3=CCN(CCCCC4CCc5ccccc54)CC3)c2c1 (stereo not drawn) [Compound 8d, 5-Fluoro-3-[1-[4-(indan-1-yl)butan-1-yl]-1,2,3,6-tetrahydropyridin-4-yl]-1H-indole] | 172 to 176 | 20
